This note sets out measurements from paper PMC9851200, “Multiparameter phenotypic screening for endogenous TFEB and TFE3 translocation identifies novel chemical series modulating lysosome function” (Autophagy, 2022).

Common to all, as to type: binding
The target in assay [1] is kinases (KINOMEscan panel) (Homo sapiens, UniProt P12931). The conditions noted are these: SRC; NEW KINOMEscan.
Assay [2] deals with kinases (KINOMEscan panel) (Homo sapiens, UniProt P10721, T670I/V559D). The conditions noted are these: NEW KINOMEscan.
Assay [3] deals with kinases (KINOMEscan panel) (Homo sapiens, UniProt Q04759). The conditions noted are these: kinase PRKCQ; NEW KINOMEscan.
Assay [4] concerns the target kinases (KINOMEscan panel) (Homo sapiens, UniProt P07949, V804M). To be noted: kinase RET(V804M); NEW KINOMEscan.
The target of assay [5] is T1, kinases (KINOMEscan panel) (Homo sapiens, UniProt Q9UQ88).
T1 sequence (Q9UQ88 1-783): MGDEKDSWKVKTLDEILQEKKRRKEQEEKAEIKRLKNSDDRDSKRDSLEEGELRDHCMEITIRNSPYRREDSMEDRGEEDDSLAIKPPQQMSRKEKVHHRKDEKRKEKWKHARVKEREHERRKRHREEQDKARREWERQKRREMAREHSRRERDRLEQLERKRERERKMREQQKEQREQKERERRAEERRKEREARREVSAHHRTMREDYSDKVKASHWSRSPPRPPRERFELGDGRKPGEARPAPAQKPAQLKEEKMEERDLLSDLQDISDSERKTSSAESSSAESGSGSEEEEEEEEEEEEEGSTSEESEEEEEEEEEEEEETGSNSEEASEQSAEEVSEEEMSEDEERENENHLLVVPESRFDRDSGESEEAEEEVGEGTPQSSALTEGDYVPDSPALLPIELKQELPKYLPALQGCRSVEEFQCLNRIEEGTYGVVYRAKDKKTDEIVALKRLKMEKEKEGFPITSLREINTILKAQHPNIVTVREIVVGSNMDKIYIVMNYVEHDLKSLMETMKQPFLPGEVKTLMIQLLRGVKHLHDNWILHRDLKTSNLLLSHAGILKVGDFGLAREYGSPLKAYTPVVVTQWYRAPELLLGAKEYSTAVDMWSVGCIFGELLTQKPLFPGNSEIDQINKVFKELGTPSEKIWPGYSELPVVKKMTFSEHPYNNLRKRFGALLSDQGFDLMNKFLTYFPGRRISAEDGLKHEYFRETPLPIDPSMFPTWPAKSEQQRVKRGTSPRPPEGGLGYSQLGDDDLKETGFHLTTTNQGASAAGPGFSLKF
To be noted: NEW KINOMEscan.

The target of assay [6] is T2, kinases (KINOMEscan panel) (Homo sapiens, UniProt Q96L34).
T2 sequence (Q96L34 1-752): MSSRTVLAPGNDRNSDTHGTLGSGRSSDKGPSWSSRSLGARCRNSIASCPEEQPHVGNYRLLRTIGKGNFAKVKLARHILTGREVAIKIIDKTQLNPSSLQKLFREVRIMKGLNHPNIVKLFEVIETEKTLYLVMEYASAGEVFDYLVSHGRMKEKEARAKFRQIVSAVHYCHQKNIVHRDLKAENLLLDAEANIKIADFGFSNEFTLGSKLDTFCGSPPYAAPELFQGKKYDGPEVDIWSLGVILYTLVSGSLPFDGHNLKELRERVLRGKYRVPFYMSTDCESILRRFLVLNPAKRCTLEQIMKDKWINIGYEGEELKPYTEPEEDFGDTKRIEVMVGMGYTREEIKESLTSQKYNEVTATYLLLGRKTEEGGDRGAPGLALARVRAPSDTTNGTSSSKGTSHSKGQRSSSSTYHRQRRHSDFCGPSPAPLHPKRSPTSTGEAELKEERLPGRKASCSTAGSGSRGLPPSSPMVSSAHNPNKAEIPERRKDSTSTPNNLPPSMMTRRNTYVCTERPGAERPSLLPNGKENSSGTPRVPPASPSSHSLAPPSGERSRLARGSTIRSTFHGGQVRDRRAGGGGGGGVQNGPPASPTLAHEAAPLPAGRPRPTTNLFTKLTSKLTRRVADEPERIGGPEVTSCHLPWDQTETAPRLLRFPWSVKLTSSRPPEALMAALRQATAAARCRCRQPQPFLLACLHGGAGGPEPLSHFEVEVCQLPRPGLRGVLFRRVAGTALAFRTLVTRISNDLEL
The conditions noted are these: kinase MARK4; NEW KINOMEscan.

The target of assay [7] is T3, kinases (KINOMEscan panel) (Homo sapiens, UniProt Q8WTQ7).
T3 sequence (Q8WTQ7 1-553): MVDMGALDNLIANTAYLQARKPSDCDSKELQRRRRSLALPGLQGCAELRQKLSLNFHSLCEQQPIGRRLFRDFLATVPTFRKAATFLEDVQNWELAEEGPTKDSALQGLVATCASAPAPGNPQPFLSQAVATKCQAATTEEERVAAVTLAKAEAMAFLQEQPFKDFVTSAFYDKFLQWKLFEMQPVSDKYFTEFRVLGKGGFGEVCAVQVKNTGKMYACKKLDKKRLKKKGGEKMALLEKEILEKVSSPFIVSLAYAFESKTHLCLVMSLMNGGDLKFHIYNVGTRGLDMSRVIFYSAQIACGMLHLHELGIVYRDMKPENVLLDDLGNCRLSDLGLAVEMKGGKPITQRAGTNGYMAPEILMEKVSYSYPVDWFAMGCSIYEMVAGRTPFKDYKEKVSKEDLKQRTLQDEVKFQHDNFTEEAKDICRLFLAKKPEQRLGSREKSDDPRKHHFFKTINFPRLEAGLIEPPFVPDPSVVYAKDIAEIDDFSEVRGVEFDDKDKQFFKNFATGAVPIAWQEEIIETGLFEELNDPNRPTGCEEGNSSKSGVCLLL
To be noted: kinase GRK7; NEW KINOMEscan.

Assay [8] addresses kinases (KINOMEscan panel) (Homo sapiens, UniProt P49761). To be noted: CLK3; NEW KINOMEscan.

kinases (KINOMEscan panel) (Homo sapiens, UniProt P10721, T670I/V559D), sequence (P10721 26-976 V559D/T670I): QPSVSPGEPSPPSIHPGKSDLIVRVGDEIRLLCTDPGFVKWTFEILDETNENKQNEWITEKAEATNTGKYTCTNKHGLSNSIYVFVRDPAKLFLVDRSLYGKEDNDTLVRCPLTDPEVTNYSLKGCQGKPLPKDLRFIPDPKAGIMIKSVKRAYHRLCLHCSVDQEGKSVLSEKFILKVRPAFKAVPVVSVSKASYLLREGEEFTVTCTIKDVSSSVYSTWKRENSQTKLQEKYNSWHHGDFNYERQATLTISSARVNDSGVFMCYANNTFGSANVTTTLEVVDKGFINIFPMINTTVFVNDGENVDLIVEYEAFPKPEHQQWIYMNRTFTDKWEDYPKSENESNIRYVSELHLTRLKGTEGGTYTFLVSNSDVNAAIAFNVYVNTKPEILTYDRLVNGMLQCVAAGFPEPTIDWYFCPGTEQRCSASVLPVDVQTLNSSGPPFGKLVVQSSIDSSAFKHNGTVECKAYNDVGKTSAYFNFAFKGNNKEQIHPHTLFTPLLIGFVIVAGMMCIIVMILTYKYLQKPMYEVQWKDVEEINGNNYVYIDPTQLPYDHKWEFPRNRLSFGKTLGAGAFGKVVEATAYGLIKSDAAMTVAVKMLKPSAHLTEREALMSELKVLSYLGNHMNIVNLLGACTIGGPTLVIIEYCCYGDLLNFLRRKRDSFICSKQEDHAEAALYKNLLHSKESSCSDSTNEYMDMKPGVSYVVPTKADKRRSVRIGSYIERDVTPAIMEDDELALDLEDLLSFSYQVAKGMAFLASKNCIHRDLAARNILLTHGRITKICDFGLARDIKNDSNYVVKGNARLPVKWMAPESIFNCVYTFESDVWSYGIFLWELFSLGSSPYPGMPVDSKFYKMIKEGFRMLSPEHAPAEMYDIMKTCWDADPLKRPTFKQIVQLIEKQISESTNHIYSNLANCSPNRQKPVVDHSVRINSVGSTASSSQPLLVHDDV
kinases (KINOMEscan panel) (Homo sapiens, UniProt Q04759), sequence (Q04759 whole entry): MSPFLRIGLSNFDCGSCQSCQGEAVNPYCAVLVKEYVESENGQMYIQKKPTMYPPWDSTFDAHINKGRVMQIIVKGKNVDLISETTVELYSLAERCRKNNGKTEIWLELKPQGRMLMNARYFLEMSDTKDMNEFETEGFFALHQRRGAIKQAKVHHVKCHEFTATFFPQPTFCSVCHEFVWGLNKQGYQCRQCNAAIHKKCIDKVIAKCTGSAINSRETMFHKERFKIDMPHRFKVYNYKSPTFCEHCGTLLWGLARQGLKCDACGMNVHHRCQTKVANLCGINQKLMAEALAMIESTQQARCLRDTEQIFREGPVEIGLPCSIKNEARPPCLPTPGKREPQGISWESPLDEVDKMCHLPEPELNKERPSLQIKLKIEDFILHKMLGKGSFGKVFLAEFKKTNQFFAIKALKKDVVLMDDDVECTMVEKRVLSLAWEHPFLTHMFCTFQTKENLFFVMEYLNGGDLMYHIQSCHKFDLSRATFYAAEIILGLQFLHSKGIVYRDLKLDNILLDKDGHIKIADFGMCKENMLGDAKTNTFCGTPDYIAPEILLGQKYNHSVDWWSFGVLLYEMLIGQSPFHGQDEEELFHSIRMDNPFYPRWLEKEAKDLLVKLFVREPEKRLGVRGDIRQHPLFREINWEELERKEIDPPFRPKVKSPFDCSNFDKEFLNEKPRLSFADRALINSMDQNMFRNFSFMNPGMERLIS
kinases (KINOMEscan panel) (Homo sapiens, UniProt P12931), sequence (P12931 whole entry): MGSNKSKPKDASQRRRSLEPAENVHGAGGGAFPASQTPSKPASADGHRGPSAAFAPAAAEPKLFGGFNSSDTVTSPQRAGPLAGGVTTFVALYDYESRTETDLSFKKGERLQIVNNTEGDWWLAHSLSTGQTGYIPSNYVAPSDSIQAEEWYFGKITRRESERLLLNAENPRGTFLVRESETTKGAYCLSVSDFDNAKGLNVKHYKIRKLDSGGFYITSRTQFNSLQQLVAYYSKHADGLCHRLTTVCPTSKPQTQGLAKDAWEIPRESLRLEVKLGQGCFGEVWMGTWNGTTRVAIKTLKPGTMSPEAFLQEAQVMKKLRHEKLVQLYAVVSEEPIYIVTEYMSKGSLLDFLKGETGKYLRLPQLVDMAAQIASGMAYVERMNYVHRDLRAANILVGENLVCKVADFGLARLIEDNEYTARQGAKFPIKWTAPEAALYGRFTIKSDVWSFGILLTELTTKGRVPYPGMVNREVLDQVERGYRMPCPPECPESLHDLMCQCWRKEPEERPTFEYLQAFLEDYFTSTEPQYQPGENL
kinases (KINOMEscan panel) (Homo sapiens, UniProt P49761), sequence (P49761 whole entry): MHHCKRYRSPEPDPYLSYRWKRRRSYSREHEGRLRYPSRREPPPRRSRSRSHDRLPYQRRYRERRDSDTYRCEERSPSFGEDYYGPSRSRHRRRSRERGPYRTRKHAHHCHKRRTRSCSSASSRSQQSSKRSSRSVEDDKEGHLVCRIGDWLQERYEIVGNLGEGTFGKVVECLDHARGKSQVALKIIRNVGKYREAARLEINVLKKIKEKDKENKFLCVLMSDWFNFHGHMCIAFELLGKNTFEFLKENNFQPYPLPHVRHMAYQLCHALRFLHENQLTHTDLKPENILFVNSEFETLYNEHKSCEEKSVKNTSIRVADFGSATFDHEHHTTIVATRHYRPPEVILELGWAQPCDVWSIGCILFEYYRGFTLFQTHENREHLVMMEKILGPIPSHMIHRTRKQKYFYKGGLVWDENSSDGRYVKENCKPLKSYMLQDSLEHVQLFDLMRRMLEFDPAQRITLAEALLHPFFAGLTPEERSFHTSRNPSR
kinases (KINOMEscan panel) (Homo sapiens, UniProt P07949, V804M), sequence (P07949 29-1114 V804M): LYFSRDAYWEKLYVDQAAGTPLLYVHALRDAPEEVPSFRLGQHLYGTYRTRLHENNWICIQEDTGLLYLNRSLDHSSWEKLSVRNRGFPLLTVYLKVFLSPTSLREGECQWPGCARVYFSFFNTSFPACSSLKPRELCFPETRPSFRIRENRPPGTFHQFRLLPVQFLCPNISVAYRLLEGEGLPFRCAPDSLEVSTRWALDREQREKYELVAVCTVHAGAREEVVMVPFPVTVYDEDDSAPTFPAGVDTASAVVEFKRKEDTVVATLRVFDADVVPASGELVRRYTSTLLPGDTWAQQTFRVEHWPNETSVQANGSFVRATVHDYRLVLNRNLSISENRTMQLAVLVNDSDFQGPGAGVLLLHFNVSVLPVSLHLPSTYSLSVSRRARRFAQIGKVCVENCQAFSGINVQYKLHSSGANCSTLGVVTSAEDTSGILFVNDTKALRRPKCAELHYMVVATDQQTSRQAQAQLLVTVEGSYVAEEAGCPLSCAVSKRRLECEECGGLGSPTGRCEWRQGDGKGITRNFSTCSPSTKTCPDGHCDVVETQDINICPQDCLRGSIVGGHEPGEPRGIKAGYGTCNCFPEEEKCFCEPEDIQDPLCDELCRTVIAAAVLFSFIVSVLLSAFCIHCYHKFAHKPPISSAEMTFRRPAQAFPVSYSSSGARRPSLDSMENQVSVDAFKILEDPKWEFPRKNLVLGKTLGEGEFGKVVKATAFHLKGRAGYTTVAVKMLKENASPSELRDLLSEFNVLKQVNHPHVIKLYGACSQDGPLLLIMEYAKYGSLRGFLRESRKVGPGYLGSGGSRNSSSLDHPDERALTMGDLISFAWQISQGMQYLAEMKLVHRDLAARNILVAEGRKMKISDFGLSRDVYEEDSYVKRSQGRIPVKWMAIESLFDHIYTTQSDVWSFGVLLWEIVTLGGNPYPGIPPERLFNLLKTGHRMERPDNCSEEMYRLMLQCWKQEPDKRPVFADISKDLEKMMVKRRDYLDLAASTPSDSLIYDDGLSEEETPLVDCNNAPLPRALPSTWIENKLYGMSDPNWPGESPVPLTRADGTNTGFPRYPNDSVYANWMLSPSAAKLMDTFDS

On to `Cc1cccc(-c2nc(N(C)c3ccc4ncsc4c3)c3ccccc3n2)n1` [NK-161], for which the “KINOMEscan SRC” value in assay [1] came out at 18. Further, in assay [2], the “KINOMEscan KIT(V559D,T670I)” value was 14. Also, the “KINOMEscan PRKCQ” value in assay [3] is given as 7. Also, the “KINOMEscan RET(V804M)” value in assay [4] stood at 0. Besides, the “KINOMEscan CDK11A” value in assay [5] is reported as 25. In addition, the “KINOMEscan MARK4” value in assay [6] stood at 16. For the same compound, the “KINOMEscan GRK7” value in assay [7] worked out at 5. In assay [8], the “KINOMEscan CLK3” value is listed as 4.
With `Cc1cccc(-c2nc(Nc3ccc4nn(C)cc4c3)c3ccccc3n2)n1` [NK167], in assay [1], the “KINOMEscan SRC” value is 13. In addition, the “KINOMEscan KIT(V559D,T670I)” value in assay [2] was 13. Moreover, the “KINOMEscan PRKCQ” value in assay [3] came to 0. The “KINOMEscan RET(V804M)” value in assay [4] worked out at 0. In assay [5], the “KINOMEscan CDK11A” value is listed as 24. In addition, in assay [6], the “KINOMEscan MARK4” value came to 34. In addition, the “KINOMEscan GRK7” value in assay [7] came to 0. Besides, the “KINOMEscan CLK3” value in assay [8] stood at 6.
